Square brackets hold non-standard residues; d marks the D form. Side chains are listed from the residue outwards. Peptide text beside a SMILES is read from it. * marks the point of attachment. Piperidinyl(4-(1-Pro-OH)) = O=C(O)[C@@H]1CCCN1C1CCN(*)CC1; Piperidin1yl(4-NH2,4-COOH) = NC1(C(=O)O)CCN(*)CC1; Homopiperazine(4-amidino) = N=C(N)N1CCCN(*)CC1; d(hArg) = N=C(N)NCCCC[C@@H](N)C(=O)O; dAgb = N=C(N)NCC[C@@H](N)C(=O)O; Homopiperazinyl = C1CNCCN(*)C1; dAgp = N=C(N)NC[C@@H](N)C(=O)O; dNle = CCCC[C@@H](N)C(=O)O; dDab = NCC[C@@H](N)C(=O)O; Api = NC1(C(=O)O)CCNCC1

In assay [1] the target is T1, mouse kappa opioid receptor (mKOR) (Mus musculus, UniProt P33534).
T1 construct: Stimulation of Endogenous Mouse Kappa-Opioid Receptor in R1.G1 Cells; host or cells: R1.G1 mouse thymoma cells
As to the kind of experiment: cell-based. The note with it: for Emax: read-out: mKOR Efficacy(%).

Assay [2] addresses T2, human kappa opioid receptor (hKOR) (Homo sapiens, UniProt P41145).
T2 construct: expressed in transfected cells; host or cells: HEK-293 cells, transient transfection with Fugene6
Kind of assay: cell-based. The note with it: for Emax: HEK293, read-out: hKOR Efficacy(%).

T2 sequence (P41145 whole entry): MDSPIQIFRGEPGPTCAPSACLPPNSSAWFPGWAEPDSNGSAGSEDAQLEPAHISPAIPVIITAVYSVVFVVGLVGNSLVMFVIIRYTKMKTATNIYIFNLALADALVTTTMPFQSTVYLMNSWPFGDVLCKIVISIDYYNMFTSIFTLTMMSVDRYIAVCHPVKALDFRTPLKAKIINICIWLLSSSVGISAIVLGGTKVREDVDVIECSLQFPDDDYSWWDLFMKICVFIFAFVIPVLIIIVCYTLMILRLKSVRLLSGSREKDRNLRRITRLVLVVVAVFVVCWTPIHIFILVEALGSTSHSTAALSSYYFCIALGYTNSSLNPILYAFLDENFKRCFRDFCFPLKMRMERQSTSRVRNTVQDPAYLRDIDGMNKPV
T1 sequence (P33534 whole entry): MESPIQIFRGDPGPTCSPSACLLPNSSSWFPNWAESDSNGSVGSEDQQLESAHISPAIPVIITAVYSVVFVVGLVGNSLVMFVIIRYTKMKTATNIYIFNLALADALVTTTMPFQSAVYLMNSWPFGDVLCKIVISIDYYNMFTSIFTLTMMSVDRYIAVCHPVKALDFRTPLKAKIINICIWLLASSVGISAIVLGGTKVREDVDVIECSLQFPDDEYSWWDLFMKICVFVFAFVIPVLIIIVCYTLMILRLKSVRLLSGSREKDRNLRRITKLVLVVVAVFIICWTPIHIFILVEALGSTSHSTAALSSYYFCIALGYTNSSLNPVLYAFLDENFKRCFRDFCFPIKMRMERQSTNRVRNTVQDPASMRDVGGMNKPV

Usually EC50 stands for the concentration giving half of the maximal effect. `CNCCCC[C@@H](NC(=O)[C@@H](CC(C)C)NC(=O)[C@@H](Cc1ccccc1)NC(=O)[C@H](N)Cc1ccccc1)C(=O)N1CCCN(C(=N)N)CC1` [Compound (1), D-Phe-D-Phe-D-Leu-(ε-Me)D-Lys-[4-amidinohomopiperazine amide]]: in assay [1], the EC50 came out at 0.043 nM and the Emax was found to be 103%. In addition, in assay [2], the EC50 stood at 0.15 nM and the Emax is 97%.
On the same counts, the results for `CNCCCC[C@@H](NC(=O)[C@@H](CC(C)C)NC(=O)[C@@H](Cc1ccccc1)NC(=O)[C@H](N)Cc1ccccc1)C(=O)N1CCC(N)(C(=O)O)CC1` [Compound (3), D-Phe-D-Phe-D-Leu-(ε-Me)D-Lys-[ω(4-aminopiperidine-4-carboxylic acid)]-OH] are 0.052 nM, 96%, 0.16 nM and 100%.
On the same counts, the results for `CNCCCC[C@@H](NC(=O)[C@@H](CC(C)C)NC(=O)[C@@H](Cc1ccccc1)NC(=O)[C@H](N)Cc1ccccc1)C(=O)N1CCC(N2CCC[C@H]2C(=O)O)CC1` [Compound (6), D-Phe-D-Phe-D-Leu-(ε-Me)D-Lys-[N-(4-piperidinyl)-L-proline]-OH] are 0.036 nM, 94%, 0.13 nM and 100%.
On the same counts, the results for `CC(C)C[C@@H](NC(=O)[C@@H](Cc1ccccc1)NC(=O)[C@H](N)Cc1ccccc1)C(=O)N[C@H](CCCNC(=N)N)C(=O)N1CCCNCC1` [Compound (7), D-Phe-D-Phe-D-Leu-D-Arg-[homopiperazine amide]] (H-[dF][dF][dL][dR]-Homopiperazinyl) are 0.012 nM, 98%, 0.11 nM and 100%.
On to `CC(C)C[C@@H](NC(=O)[C@@H](Cc1ccccc1)NC(=O)[C@H](N)Cc1ccccc1)C(=O)N[C@H](CCCCNC(=N)N)C(=O)N1CCC(N)(C(=O)O)CC1` [Compound (8), D-Phe-D-Phe-D-Leu-D-Har-[ω(4-aminopiperidine-4-carboxylic acid)]-OH] (H-[dF][dF][dL][d(hArg)]-{Piperidin1yl(4-NH2,4-COOH)}), for which, in assay [1], the midpoint of the response, the EC50, lay at 0.043 nM and the Emax was determined as 90%. For the same compound, in assay [2], the midpoint of the response, the EC50, lay at 0.12 nM and the Emax is 96%.
With `CC(C)C[C@@H](NC(=O)[C@@H](Cc1ccccc1)NC(=O)[C@H](N)Cc1ccccc1)C(=O)N[C@H](CCCCNC(C)C)C(=O)N1CCC(N)(C(=O)O)CC1` [Compound (9), D-Phe-D-Phe-D-Leu-(ε-iPr)D-Lys-[ω(4-aminopiperidine-4-carboxylic acid)]-OH], the EC50 was 0.078 nM in assay [1] and 0.17 nM in assay [2]. The Emax in assay [1] was 96%; in assay [2] it was 90%.
Regarding `CC(C)C[C@@H](NC(=O)[C@@H](Cc1ccccc1)NC(=O)[C@H](N)Cc1ccccc1)C(=O)N[C@H](CNC(=N)N)C(=O)N1CCC(N)(C(=O)O)CC1` [Compound (10), D-Phe-D-Phe-D-Leu-(β-amidino)D-Dap-[ω(4-aminopiperidine-4-carboxylic acid)]-OH] (H-[dF][dF][dL][dAgp]-{Piperidin1yl(4-NH2,4-COOH)}), the EC50 in assay [1] is 0.826 nM; in assay [2] it was 0.3 nM. Also, the Emax in assay [1] stood at 90%; in assay [2], 86%.
The matching figures for `CC(C)C[C@@H](NC(=O)[C@@H](Cc1ccccc1)NC(=O)[C@H](N)Cc1ccccc1)C(=O)N[C@H](CCNC(=N)N)C(=O)N1CCC(N)(C(=O)O)CC1` [Compound (11), D-Phe-D-Phe-D-Leu-D-Nar-[ω(4-aminopiperidine-4-carboxylic acid)]-OH] (H-[dF][dF][dL][dAgb]-{Piperidin1yl(4-NH2,4-COOH)}): 0.052 nM, 0.15 nM, 92% and 82%.
For the compound `CC(C)C[C@@H](NC(=O)[C@@H](Cc1ccccc1)NC(=O)[C@H](N)Cc1ccccc1)C(=O)N[C@H](CCN)C(=O)N1CCC(N2CCC[C@H]2C(=O)O)CC1` [Compound (12), D-Phe-D-Phe-D-Leu-D-Dbu-[N-(4-piperidinyl)-L-proline]-OH] (H-[dF][dF][dL][dDab]-{Piperidinyl(4-(1-Pro-OH))}), the results for the EC50 in assay [1] and in assay [2] were 0.055 nM and 0.17 nM, respectively. Besides, the Emax in assay [1] amounted to 89%.
Regarding `CC(C)C[C@@H](NC(=O)[C@@H](Cc1ccccc1)NC(=O)[C@H](N)Cc1ccccc1)C(=O)N[C@H](CCNC(=N)N)C(=O)N1CCC(N2CCC[C@H]2C(=O)O)CC1` [Compound (13), D-Phe-D-Phe-D-Leu-D-Nar-[N-(4-piperidinyl)-L-proline]-OH] (H-[dF][dF][dL][dAgb]-{Piperidinyl(4-(1-Pro-OH))}), the EC50 in assay [1] came to 0.032 nM; in assay [2] it was 0.13 nM. The Emax came to 88% in assay [1] and 90% in assay [2].
On the same counts, the results for `CC(C)C[C@@H](NC(=O)[C@@H](Cc1ccccc1)NC(=O)[C@H](N)Cc1ccccc1)C(=O)N[C@H](CNC(=N)N)C(=O)N1CCC(N2CCC[C@H]2C(=O)O)CC1` [Compound (14), D-Phe-D-Phe-D-Leu-D-Dap(amidino)-[N-(4-piperidinyl)-L-proline]-OH] (H-[dF][dF][dL][dAgp]-{Piperidinyl(4-(1-Pro-OH))}) are 0.349 nM, 0.21 nM, 86% and 81%.
On the same counts, the results for `CC(C)C[C@@H](NC(=O)[C@@H](Cc1ccccc1)NC(=O)[C@H](N)Cc1ccccc1)C(=O)N[C@H](CCCCN)C(=O)N1CCCN(C(=N)N)CC1` [Compound (15), D-Phe-D-Phe-D-Leu-D-Lys-[4-amidinohomopiperazine amide]] are 0.028 nM, 0.11 nM, 92% and 92%.
Consider `CCCC[C@@H](NC(=O)[C@@H](Cc1ccccc1)NC(=O)[C@H](N)Cc1ccccc1)C(=O)N[C@H](CNC(=N)N)C(=O)N1CCCN(C(=N)N)CC1` [Compound (19), D-Phe-D-Phe-D-Nle-(β-amidino)D-Dap-[4-amidinohomopiperazine amide]] (H-[dF][dF][dNle][dAgp]-{Homopiperazine(4-amidino)}), for which, in assay [1], the EC50 stood at 2.15 nM and the Emax was found to be 99%.
On the same counts, the results for `CCCC[C@@H](NC(=O)[C@@H](Cc1ccccc1)NC(=O)[C@H](N)Cc1ccccc1)C(=O)N[C@H](CCCNC(=N)N)C(=O)N1CCC[C@@H]1C(=O)O` [Compound (40), D-Phe-D-Phe-D-Nle-D-Arg-D-Pro-OH] (H-[dF][dF][dNle][dR][dP]-OH) are 9.05 nM and 88%.
`CC(C)C[C@@H](NC(=O)[C@@H](Cc1ccccc1)NC(=O)[C@H](N)Cc1ccccc1)C(=O)N[C@H](CCCN)C(=O)N[C@H]1CN[C@H](C(=O)O)C1` [Compound (41), D-Phe-D-Phe-D-Leu-D-Orn-[(2S,4R)-4-amino-pyrrolidine-2-carboxylic acid]-OH]: in assay [1], the EC50 amounted to 50.6 nM and the Emax is 87%.
Regarding `CC(C)C[C@@H](NC(=O)[C@@H](Cc1ccccc1)NC(=O)[C@H](N)Cc1ccccc1)C(=O)N[C@H](CCCN)C(=O)N[C@@H]1CN[C@H](C(=O)O)C1` [Compound (42), D-Phe-D-Phe-D-Leu-D-Orn-[(2S,45)-4-amino-pyrrolidine-2-carboxylic acid]-OH], in assay [1], the EC50 came out at 3 nM and the Emax came to 96%.
On the same counts, the results for `CC(C)C[C@@H](NC(=O)[C@@H](Cc1ccccc1)NC(=O)[C@H](N)Cc1ccccc1)C(=O)N[C@H](CCCN)C(=O)NC1CCN(CC(N)=O)CC1` [Compound (51), D-Phe-D-Phe-D-Leu-D-Orn-[4-amino-1-carboxymethyl-piperidine]-NH2] are 1.97 nM and 93%.
In turn, `CC(C)C[C@@H](NC(=O)[C@@H](Cc1ccccc1)NC(=O)[C@H](N)Cc1ccccc1)C(=O)N[C@H](CCCN)C(=O)NCCCC[C@@H](NC(=O)[C@H](N)CCCN)C(=O)O` [Compound (82)] showed an EC50 in assay [1] of 0.12 nM.
`CC(C)C[C@@H](N)C(=O)N[C@H](CCCN)C(=O)N[C@H](CCCCNC(=O)[C@@H](CCCN)NC(=O)[C@@H](CC(C)C)NC(=O)[C@@H](Cc1ccccc1)NC(=O)[C@H](N)Cc1ccccc1)C(=O)O` [Compound (83)]: in assay [1], the response was half-maximal at 0.05 nM (EC50) and the Emax stood at 91%.
Turning to `CC(C)C[C@@H](NC(=O)[C@H](N)Cc1ccccc1)C(=O)N[C@H](CCCN)C(=O)N[C@H](CCCCNC(=O)[C@@H](CCCN)NC(=O)[C@@H](CC(C)C)NC(=O)[C@@H](Cc1ccccc1)NC(=O)[C@H](N)Cc1ccccc1)C(=O)O` [Compound (84)], in assay [1], the half-maximal effective concentration (EC50) amounted to 0.34 nM and the Emax amounted to 85%.
The matching figures for `CC(C)C[C@@H](NC(=O)[C@@H](Cc1ccccc1)NC(=O)[C@H](N)Cc1ccccc1)C(=O)N[C@H](CCCNC(C)C)C(=O)NC1(C(=O)O)CCN(C(=O)[C@@H](CCCNC(C)C)NC(=O)[C@@H](CC(C)C)NC(=O)[C@@H](Cc2ccccc2)NC(=O)[C@H](N)Cc2ccccc2)CC1` [Compound (86), 1N,4N-bis-[D-Phe-D-Phe-D-Leu-(iPr)D-Orn]-4-amino-4-carboxylic-piperidine]: 56.7 nM and 77%.
On the same counts, the results for `CC(C)C[C@@H](NC(=O)[C@@H](Cc1ccccc1)NC(=O)[C@H](N)Cc1ccccc1)C(=O)N[C@H](CCNC(=N)N)C(=O)NC1(C(=O)O)CCN(C(=O)[C@@H](CCNC(=N)N)NC(=O)[C@@H](CC(C)C)NC(=O)[C@@H](Cc2ccccc2)NC(=O)[C@H](N)Cc2ccccc2)CC1` [Compound (88), 1N,4N-bis-(D-Phe-D-Phe-D-Leu-D-Nar)-4-amino-4-carboxylic piperidine] (H-[dF][dF][dL][dAgb][Api]([dAgb-dL-dF-dF])-OH) are 13.8 nM and 76%.

For the origin of these results see patent US7713937B2, “Synthetic peptide amides and dimeric forms thereof” (Cara Therapeutics, Inc., priority 2006, dated 2010).
